{"source": "patent US20210308101A1", "about": "“METHODS OF TREATING FIBROMYALGIA” (Aptinyx Inc., priority 2019, published 2021)", "key": {"[1]": {"system": "pain-evoked brain activity", "test": "fMRI of evoked cuff pain, BOLD activations", "format": "in vivo, human", "text": "As used herein, “Functional Magnetic Resonance Imaging of Evoked Pain and Visual Stimulation” refers to the following procedure. During evoked pain and visual stimulation fMRI paradigms, participants were lying in the scanner as they received either pressure stimulation to their calf muscle or they experienced an unpleasant visual stimulus. For both pain and visual stimulation, whole-brain Blood Oxygenation Level Dependent (BOLD) functional images were acquired.\nEach subject underwent a 12-minute block design scan, during which 3 cuff pressure levels (2 equal pressures=15 to 30 and 100 to 115 mmHg; and 1 equal pain=40 to 60/100 numerical rating scale [NRS] units) were applied to the left calf […] using the pressure cuff device in pseudo-random order for a total of 12 pressure stimulations. Pressure levels for each subject were determined during the QST assessment. Each pressure stimulus was applied for 14 seconds. Prior to each pressure stimulus, a 4-second visual cue was presented to signal upcoming cuff pressure to limit any stimulus-onset startle reflex. Subjects' head motion was minimized using foam pads around the head, and a strap secured across the forehead.\nAs with functional connectivity analyses, pre-processing of images occurs using SPM12. The first 5 images were discarded from the data set and not used for further analysis in order to correct for equilibration effects. Pre-processing steps included: physio-correction, motion correction, coregistration, normalization, and smoothing (FWHM 6 or 8 mm). First level analyses were performed using the general linear model (GLM) implemented in SPM12. Motion parameters from re-alignment were modelled as regressors of no interest. Pain and visual blocks were convolved with a canonical hemodynamic response function and contrasted with rest blocks of no stimulation. These activation maps were then passed up to group-level analyses comparing differences in activations at the analysis visits of interest in SPM. Resulting maps were set at an uncorrected voxel threshold of p<0.001, with p<0.05 FDR or FWE significance corrected for multiple comparisons. The primary analyses were a paired sample t-tests between placebo images and NYX-2925 images (either 20 or 200 mg).\n(§1) Several analyses were conducted with the fMRI resting state and task data. Results were assessed by: 1) a primary analysis, where a finding was deemed significant with a corrected cluster level p<0.05, derived from an uncorrected voxel-wise p<0.001, and 2) an exploratory analysis, where a finding was deemed significant with an uncorrected voxel-wise p<0.005 and having a cluster greater than or equal to 80 contiguous voxels. Results that met significance in the primary analyses had connectivity values extracted and imported into SPSS v25 where paired t-tests were performed to assess for potential outliers contributing to the finding. Remaining data were then correlated with clinical measures using parametric bivariate Pearson correlations. Results were deemed significant at p<0.05."}, "[2]": {"system": "resting state network connectivity", "test": "rs-fcMRI group independent component analysis (DMN, SLN, DAN)", "format": "in vivo, human", "experimental": "In order to quantify intrinsic brain connectivity, rs-fcMRI data were analyzed with both dual-regression ICA and seed-voxel approaches. These approaches are complementary, as they quantify intrinsic brain connectivity on a network level (dual regression probabilistic ICA) and a more specific region-focused level (seed-voxel).\nResting state functional connectivity MRI data were preprocessed and analyzed using statistical parametric mapping software package Version 12, the CONN functional connectivity toolbox, and the GIFT toolbar, all running on MATLAB Version 9.2 or later. Upon collection of rs-fcMRI data, physiological artifacts were first removed using a custom MATLAB algorithm and slice-time corrected using Functional Magnetic Resonance Imaging of the Brain Software Library software. Preprocessing steps included motion correction, realignment, registration, normalization to standard Montreal Neurological Institute template, and smoothing (full width at half maximum Gaussian kernel of 6 or 8 mm).\nGroup ICA was performed using the GIFT toolbar and component estimates were validated using Icasso software for 10 iterations. The number of independent components was limited to 25 to minimize splitting into subcomponents. Subject-specific spatial maps and time courses were back reconstructed using spatiotemporal regression and dual regression in GIFT. As for seed-based analyses, individual maps were passed onto group second level analyses in statistical parametric mapping, where differences in resting state network connectivity between placebo and drug images were performed.\nas §1\nGroup ICA was performed (n=18) for the resting state scan, and the network components for the Default Mode Network, the Salience Network, and the Dorsal Attention Network were computed. […] With the exploratory analyses, resting state connectivity was decreased from the placebo visit to the NYX-2925 200 mg visit (placebo >NYX-2925 200 mg) between the Default Mode Network and the left mid cingulate cortex. […] In exploratory analyses, resting state functional connectivity was decreased from the placebo visit to the NYX-2925 200 mg visit (placebo >NYX-2925 200 mg) between the Salience Network and the right putamen/thalamus. Here, augmented connectivity between Salience Network, a network comprised of pronociceptive regions, and putamen and thalamus, regions also involved in nociception, was decreased following treatment with NYX-2925."}, "[3]": {"conditions": "exploratory, placebo visit to NYX-2925 200 mg visit"}}, "data": [{"smiles": "CC(C)C(=O)N1CCC[C@]12CN([C@H](C(N)=O)[C@@H](C)O)C2=O", "note": "[NYX-2925, (2S, 3R)-3-hydroxy-2-((R)-5-isobutyryl-1-oxo-2,5-diazaspiro[3.4]octan-2-yl)butanamide]", "values": [{"measurement": "pain-evoked brain activity in brain imaging, subject 1", "setting": "[1]; 200 mg dose vs placebo, FIGS. 4A, 4B", "result": "reduced pain-related brain activity"}, {"measurement": "pain-evoked brain activity in brain imaging, subject 2", "setting": "[1]; 200 mg dose vs placebo, FIGS. 4C, 4D", "result": "reduction in pain-related brain activity"}, {"measurement": "BOLD activations in right mid cingulate cortex and left primary somatosensory cortex/supplementary motor area", "setting": "[1]; exploratory, placebo visit to NYX-2925 20 mg visit", "result": "decreased"}, {"measurement": "BOLD activations in right putamen/insula, bilateral primary somatosensory/cingulate cortex, left putamen, left posterior insula", "setting": "[1]; [3]", "result": "decreased"}, {"measurement": "BOLD activations, evoked cuff pain task (Pain50 pressure > rest)", "setting": "[1]; primary analyses", "result": "No significant BOLD activations"}, {"measurement": "connectivity Default Mode Network - left mid cingulate cortex", "setting": "[2]; [3]", "result": "decreased"}, {"measurement": "connectivity Salience Network - right putamen/thalamus", "setting": "[2]; [3]", "result": "decreased"}, {"measurement": "Salience Network connectivity", "setting": "[2]; primary analysis", "result": "No results met significance"}, {"measurement": "Default Mode Network connectivity", "setting": "[2]; primary analysis, n=18", "result": "No results met significance"}, {"measurement": "Dorsal Attention Network connectivity", "setting": "[2]; primary and exploratory analyses", "result": "no significant results"}]}]}
